For this test, the target named is human A2A receptor (Homo sapiens (Human), UniProt P29274). Put plainly: competition binding assay using Scintillation Proximity technology. As to conditions: membranes from CHO-K1 cells expressing the human A2a receptor; 2.0 nM tritiated compound; Cheng-Prusoff. As to the method: The utility of the compounds in accordance with the present invention as A2A receptor antagonists may be readily determined without undue experimentation by methodologies well known in the art, including by a competition binding assay using Scintillation Proximity technology. Briefly, membranes from CHO-K1 cells expressing the human A2A receptor are incubated with a test compound at various concentrations, e.g., ranging from 3000 nM to 0.15 nM, in a reaction mixture also containing a tritiated form of 5-amino-7-[2-phenethyl]-2-(furan-2-yl)-7H-pyrazolo[4,3-e][1,2,4]triazolo[1,5-c]pyrimidine (the tritiated compound) and wheatgerm agglutin-coated yttrium silicate SPA beads at room temperature. The beads are then allowed to settle to the bottom of the wells, after which the membrane-associated radioactivity is determined by scintillation counting in a microplate reader. Ki values can be determined using the Cheng-Prusoff equation.
Thus, 1.0 μg of membranes from CHO-K1 cells expressing the human A2a receptor were incubated with a compound of the invention at concentrations ranging from 3000 nM to 0.15 nM in a reaction mixture also containing 2.0 nM of a tritiated form of 5-amino-7-[2-phenethyl]-2-(furan-2-yl)-7H-pyrazolo[4,3-e][1,2,4]triazolo[1,5-c]pyrimidine (the tritiated compound) and 100 μg of wheatgerm agglutin-coated yttrium silicate SPA beads for one hour at room temperature with agitation. The beads were then allowed to settle to the bottom of the wells for 1 hr, after which the membrane-associated radioactivity was determined by scintillation counting in a TopCount microplate reader. Ki values were determined using the Cheng-Prusoff equation.
Summary of Materials and Methods Used in A2a Activity Determination:
• Membranes from CHO-K1 cells expressing the human Adenosine2A receptor (Perkin-Elmer #RBHA2AM400UA). • The tritiated compound was prepared according to published methods. • Wheatgerm agglutinin-coated yttrium silicate SPA beads (GE Healthcare #RPNQ0023). Dilute to 25 mg/ml in Assay Buffer. • Assay Buffer: Dulbecco's calcium and magnesium free phosphate buffered saline+10 mM MgCl2 • Adenosine deaminase (ADA) from calf intestine, 10 mg/2 ml (Roche #10 102 105 001). • DMSO • A2a antagonist standard (9-chloro-1-(2-furanyl)-[1,2,4]triazolo[1,5-c]quinazolin-5-amine from Tocris Bioscience) Compound Dilution • Make eight 1:3 serial dilutions in 100% DMSO from a 3 mM compound stock. • Transfer 50 nL of compound into a 384-well OptiPlate (Perkin Elmer). • Typically, final concentrations of compound used in the assay ranged from 3000 nM to 0.152 nM. Radioisotope • Dilute a solution of the tritiated compound to 5.0 nM in assay buffer. This is a 2.5× solution. The final concentration in the assay is 2.0 nM. Calculate the concentration by counting two 5 μL aliquots. Membrane Preparation • Use 1.0 μg of membrane/well. Dilute membranes to 33 μg/mL in assay buffer. Treat with 20 μg/mL ADA for 15 minutes at room temperature to degrade endogenous adenosine. Membrane-Bead Mixture • Use 100 μg/well wheatgerm agglutinin-coated yttrium silicate SPA beads. • Mix ADA-treated membranes and SPA beads together for 30 min prior to assay. Assay Assembly • To the Perkin-Elmer Optiplate-384 containing the compound titration add 20 μL of 2.5× solution of the tritiated compound and 30 μL of the membrane-bead mixture. Incubate for one hour at room temperature with agitation. • Include total binding (assay buffer+1% DMSO) and non-specific binding (CGS 15943, 1 μM) wells. Counting • Allow the beads to settle for one hour. • Count in TopCount. Calculations • A curve fitting program (i.e., Prism, Activity Base, Chemcart) is used to determine the EC50. The Ki value is calculated using the Cheng-Prusoff equation. Ki=EC50/(1+(radioligand concentration/Kd))
(In general: Scintillation proximity formats need no separation of bound from free tracer.)

Chain of human A2A receptor (P29274 whole entry): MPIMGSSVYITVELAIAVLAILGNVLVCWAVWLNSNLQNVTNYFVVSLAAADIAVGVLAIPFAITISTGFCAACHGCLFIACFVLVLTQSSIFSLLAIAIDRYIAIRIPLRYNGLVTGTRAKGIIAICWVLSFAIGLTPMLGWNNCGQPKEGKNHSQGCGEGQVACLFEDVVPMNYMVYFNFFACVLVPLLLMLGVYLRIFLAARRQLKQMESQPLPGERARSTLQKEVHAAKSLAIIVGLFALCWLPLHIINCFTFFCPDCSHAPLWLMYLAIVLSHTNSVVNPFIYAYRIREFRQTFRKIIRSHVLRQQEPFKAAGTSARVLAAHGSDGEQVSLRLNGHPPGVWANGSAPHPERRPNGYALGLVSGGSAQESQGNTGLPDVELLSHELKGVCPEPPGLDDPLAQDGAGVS

One may read the Ki as a dissociation constant, usually derived from enzyme kinetics or from competition with a known ligand. Low readings indicate a stronger hold on the target, high ones a looser hold on the target. With `Nc1nc2c3c(ccc2c2nc(CCN4Cc5cnc(C(F)(F)F)nc5C4)nn12)OC(F)(F)O3` [Example 9, 2,2-difluoro-8-{2-[2-(trifluoromethyl)-5,7-dihydro-6H-pyrrolo[3,4-d]pyrimidin-6-yl]ethyl}[1,3]dioxolo[4,5-h][1,2,4]triazolo[1,5-c]quinazolin-5-amine], the affinity corresponds to a Ki of 3.8 nM.

The compound `CC1(F)CCCN(CCc2nc3c4ccc5c(c4nc(N)n3n2)OC(F)(F)O5)C1` (single isomer, unassigned) [Example 65, (R or S)-2,2-difluoro-8-[2-(3-fluoro-3-methylpiperidin-1-yl)ethyl][1,3] dioxolo[4,5-h][1,2,4]triazolo[1,5-c] quinazolin-5-amine] returned a Ki of 4.2 nM.

For `C[C@H](Cc1nc2c3ccc4c(c3nc(N)n2n1)OC(F)(F)O4)N1CCc2ccncc2C1` [Example 77, 8-[(2R)-2-(3,4-dihydro-2,7-naphthyridin-2(1H)-yl)propyl]-2,2-difluoro[1,3]dioxolo[4,5-h] [1,2,4]triazolo[1,5-c]quinazolin-5-amine], the affinity, expressed as Ki, was 3.9 nM.

Regarding `CC1CCN(CCc2nc3c4ccc5c(c4nc(N)n3n2)OC(F)(F)O5)CC1` [Example 38, 2,2-difluoro-8-[2-(4-methylpiperidin-1-yl)ethyl][1,3]dioxolo[4,5-h][1,2,4]triazolo[1,5-c]quinazolin-5-amine], the Ki worked out at 27 nM.

The compound `Nc1nc2c3c(ccc2c2nc(CN4CCN(c5ccc(F)cc5)CC45CC5)nn12)OC(F)(F)O3` [Example 102, 2,2-difluoro-8-((7-(4-fluorophenyl)-4,7-diazaspiro[2.5]octan-4-yl)methyl)-[1,3]dioxolo[4,5-h][1,2,4]triazolo[1,5-c]quinazolin-5-amine] displayed a Ki of 3.5 nM.

On to `CC(c1nc2c3ccc4c(c3nc(N)n2n1)OC(F)(F)O4)N1C[C@H](F)[C@@H](F)C1` (single isomer, unassigned) [Example 133, (R or S)-8-{1-[(3S,4S)-3,4-difluoropyrrolidin-1-yl]ethyl}-2,2-difluoro[1,3]dioxolo[4,5-h][1,2,4]triazolo[1,5-c]quinazolin-5-amine], for which the Ki came to 64 nM.

The compound `Nc1nc2c3c(ccc2c2nc(CCNC4(C(F)(F)F)CCC4)nn12)OC(F)(F)O3` [Example 58, 2,2-difluoro-8-(2-{[1-(trifluoromethyl)cyclobutyl]-amino}ethyl)[1,3]dioxolo[4,5-h][1,2,4]triazolo[1,5-c]quinazolin-5-amine] came in with an inhibitory constant (Ki) of 1 nM.

As for `Nc1nc2c3c(ccc2c2nc(CCN4CCCC5(CCNCC5)C4)nn12)OC(F)(F)O3` [Example 56, 8-[2-(2,9-diazaspiro[5.5]undec-2-yl)ethyl]-2,2-difluoro[1,3] dioxolo[4,5-h][1,2,4]triazolo [1,5-c]quinazolin-5-amine], the inhibition constant Ki is 27 nM.

As for `Nc1nc2c3c(ccc2c2nc(CN4CC(F)(C(F)(F)F)C4)nn12)OC(F)(F)O3` [Example 114, 2,2-difluoro-8-{[3-fluoro-3-(trifluoromethyl)azetidin-1-yl]methyl} [1,3]dioxolo[4,5-h][1,2,4]triazolo[1,5-c]quinazolin-5-amine], the affinity corresponds to a Ki of 1.4 nM.

Consider `Nc1nc2c3c(ccc2c2nc(CN4Cc5ccc(F)cc5C4)nn12)OC(F)(F)O3` [Example 120, 2,2-difluoro-8-[(5-fluoro-1,3-dihydro-2H-isoindol-2-yl)methyl][1,3] dioxolo[4,5-h][1,2,4]triazolo[1,5-c]quinazolin-5-amine], for which the inhibition constant Ki stood at 2.7 nM.

Regarding `Nc1nc2c3c(ccc2c2nc(CCN4CCN(c5cccc(F)c5)C(=O)C4)nn12)OC(F)(F)O3` [Example 50, 4-[2-(5-amino-2,2-difluoro[1,3]dioxolo[4,5-h][1,2,4]triazolo [1,5-c]quinazolin-8-yl)ethyl]-1-(3-fluorophenyl)piperazin-2-one], the Ki amounted to 1.1 nM.

In turn, `Nc1nc2c3c(ccc2c2nc(Cc4cccnc4Cl)nn12)OC(F)(F)O3` [Example 3, 8-((2-chloropyridin-3-yl)methyl)-2,2-difluoro-[1,3]dioxolo[4,5-h][1,2,4]triazolo[1,5-c]quinazolin-5-amine] came in with a Ki of 2.9 nM.

`Nc1nc2c3c(ccc2c2nc(CN4CCN(c5cccc(F)c5)CC45CC5)nn12)OC(F)(F)O3` [Example 104, 2,2-difluoro-8-{[7-(3-fluorophenyl)-4,7-diazaspiro[2.5]oct-4-yl]methyl} [1,3]dioxolo[4,5-h][1,2,4]triazolo [1,5-c]quinazolin-5-amine] gave a Ki of 8.7 nM.

Take `Nc1nc2c3c(ccc2c2nc(CCNCc4ccc(C(F)(F)F)cc4)nn12)OC(F)(F)O3` [Example 59, 2,2-difluoro-8-(2-{[4-(trifluoromethyl)benzyl]amino}ethyl)[1,3]dioxolo[4,5-h][1,2,4]triazolo[1,5-c]quinazolin-5-amine]: the Ki turned out to be 6.2 nM.

`Nc1nc2c3c(ccc2c2nc(CCN4CCCC45CCNCC5)nn12)OC(F)(F)O3` [Example 55, 8-[2-(1,8-diazaspiro[4.5]dec-1-yl)ethyl]-2,2-difluoro[1,3] dioxolo[4,5-h][1,2,4]triazolo [1,5-c]quinazolin-5-amine]: the Ki was found to be 22 nM.

As to `Cc1cc(C)n(Cc2nc3c4ccc5c(c4nc(N)n3n2)OC(F)(F)O5)n1` [Example 129, 8-[(3,5-dimethyl-1H-pyrazol-1-yl)methyl]-2,2-difluoro[1,3]dioxolo[4,5-h][1,2,4]triazolo[1,5-c]quinazolin-5-amine], the Ki came to 1 nM.

The compound `CC1N(CCc2nc3c4ccc5c(c4nc(N)n3n2)OC(F)(F)O5)CCCC1(F)F` (single isomer, unassigned) [Example 68, (R or S)-8-[2-(3,3-difluoro-2-methylpiperidin-1-yl)ethyl]-2,2-difluoro[1,3]dioxolo[4,5-h][1,2,4] triazolo[1,5-c]quinazolin-5-amine] came in with a Ki of 1.2 nM.

Turning to `Nc1nc2c3c(ccc2c2nc(CC4CN(C5CCC5)C4)nn12)OC(F)(F)O3` [Example 151, 8-[(1-cyclobutylazetidin-3-yl)methyl]-2,2-difluoro[1,3]dioxolo[4,5-h][1,2,4]triazolo[1,5-c]quinazolin-5-amine], the Ki is 65 nM.

Compound `Cc1ncc(N2CCN(Cc3nc4c5ccc6c(c5nc(N)n4n3)OC(F)(F)O6)[C@H](C)C2)s1` [Example 107, 2,2-difluoro-8-{[(2R)-2-methyl-4-(2-methyl-1,3-thiazol-5-yl)piperazin-1-yl]methyl}[1,3]dioxolo[4,5-h][1,2,4] triazolo[1,5-c]quinazolin-5-amine] displayed a Ki of 4 nM.

Compound `Nc1nc2c3c(ccc2c2nc(CC4CN(c5ccccn5)C4)nn12)OC(F)(F)O3` [Example 153, 2,2-difluoro-8-[(1-pyridin-2-ylazetidin-3-yl)methyl][1,3] dioxolo[4,5-h][1,2,4]triazolo [1,5-c]quinazolin-5-amine] gave an inhibition constant Ki of 170 nM.

Regarding `Nc1nc2c3c(ccc2c2nc(CCN4CCCC(F)(C(F)(F)F)C4)nn12)OC(F)(F)O3` (single isomer, unassigned) [Example 73, (R or S)-2,2-difluoro-8-(2-(3-fluoro-3-(trifluoromethyl)piperidin-1-yl)ethyl)-[1,3]dioxolo[4,5-h][1,2,4]triazolo[1,5-c]quinazolin-5-amine], affinity was put at a Ki of 0.9 nM.

In turn, `Nc1nc2c3c(ccc2c2nc(C4CCCN(c5cccc(F)c5)C4)nn12)OC(F)(F)O3` (single isomer, unassigned) [Example 143, (R or S)-2,2-difluoro-8-[1-(3-fluorophenyl)piperidin-3-yl][1,3]dioxolo[4,5-h][1,2,4]triazolo[1,5-c]quinazolin-5-amine] showed a Ki of 59 nM.

(Values after patent US11046714B2, “2,2-difluorodioxolo A2A receptor antagonists” (Merck Sharp & Dohme Corp., priority 2013, dated 2021).)
